Laboratory results taken from patent US4067996A, “Phenylacetic acid derivatives” (Synthelabo, priority 1974, dated 1978).
Where two headings read alike, the source gives them in different places.

Columns and labels:
[1] = Acute toxicity in mice on oral administration; type: in vivo; details: mouse, in vivo, read-out: LD 50 (acute toxicity)
Method: (§1) The acute toxicity was studied by oral administration to CDl mice of both sexes. The 50% lethal doses (LD 50) were determined graphically.
(§2) In a second series of experiments, the experimental technique was modified slightly: the compounds studied are dispersed in olive oil instead of being dissolved in water.

cholesterol in the serum = assay: Hypocholesterolaemic action in rats on oral administration (7 days); type: in vivo, male albino rats of the CDl race (Charles River); details: daily for 7 days
Method: (§3) The reference substances chosen were clofibrate or ethyl 2-p-chlorophenoxy-2-methyl-propionate, and halofenate or 2-acetamido-ethyl2-p-chlorophenyl-2-m-trifluoromethylphenoxy-acetate.
(§4) The hypocholesterolaemic action was determined on male albino rats of the CDl race (Charles River) weighing on average 250 g and fed normally, the rats being divided into batches each of 10 animals. Daily doses of one of the compounds studied were administered orally for 7 days. On the 8th day, the contents of cholesterol and triglycerides in the blood were determined and compared with those of animals of the untreated comparison group. In this way it was possible graphically to evaluate, for each compound, the 30% active dose (AD 30), that is to say the daily dose which causes a 30% reduction in the content of cholesterol or of triglycerides in the serum.
(§5) *AD 30 = daily dose which causes a 30% reduction in the content of
as §2

[2] = system: triglycerides in the serum; assay: Hypolipaemic activity (triglycerides) in rats on oral administration (7 days); type: in vivo, male albino rats of the CDl race (Charles River); details: daily for 7 days
Method: as §3, §4, §5, §2

CDl mice = assay: Acute toxicity in mice on oral administration; type: in vivo; details: Table III, second series, dispersed in olive oil
Method: as §1, §2

[3] = system: content of lipids (triglycerides and cholesterol) in the blood; assay: Hypolipaemic and hypocholesterolaemic effect compared with reference substances (summary); type: in vivo, rats
Method: as §3, §4, §2

[4] = Table II, first series (dissolved in water)
[5] = Table III, second series, dispersed in olive oil

Row | SMILES | LD50 ([1]; Table II, first series) | AD 30, cholesterol (daily dose which causes a 30% reduction in serum cholesterol) (cholesterol in the serum; [4]) | AD 30, triglycerides (daily dose which causes a 30% reduction in serum triglycerides) [2, 4] | LD 50 (acute toxicity) (CDl mice) | AD 30, cholesterol (daily dose which causes a 30% reduction in serum cholesterol) (cholesterol in the serum; [5]) | AD 30, triglycerides (daily dose which causes a 30% reduction in serum triglycerides) [2, 5] | times more active than clofibrate ([3]; relative to clofibrate) | times more active than halofenate ([3]; relative to halofenate) | LD50 [1, 5]
1 | CCOC(=O)C(C)(C)Oc1ccc(Cl)cc1 [Clofibrate, ethyl 2-p-chlorophenoxy-2-methyl-propionate, reference compound] | 1300 mg/kg | 160 mg/kg | 200 mg/kg | – | – | – | – | – | –
2 | CC(=O)NCCOC(=O)C(Oc1cccc(C(F)(F)F)c1)c1ccc(Cl)cc1 (centres unmarked) [Halofenate, 2-acetamido-ethyl2-p-chlorophenyl-2-m-trifluoromethylphenoxy-acetate, reference compound] | 1800 mg/kg | 70 mg/kg | 50 mg/kg | – | – | – | – | – | –
3 | CC(=O)NCCOC(=O)C(Oc1ccc(F)c(C(F)(F)F)c1)c1ccc(Cl)cc1 (centres unmarked) [SL C 149, 2-Acetylamino-ethyl 2-(4-chloro-phenyl)-2-(4-fluoro-3-trifluoromethyl-phenoxy)-acetate] | 2000 mg/kg | 17 mg/kg | 12 mg/kg | 2,000 mg/kg | 30 mg/kg | 20 mg/kg | about 15 times | four | –
4 | CCOC(=O)C(Oc1ccc(F)c(C(F)(F)F)c1)c1ccc(Cl)cc1 (centres unmarked) [SL C 150, Ethyl 2-(4-chloro-phenyl)-2-(4-fluoro-3-trifluoromethyl-phenoxy)-acetate] | > 2500 mg/kg | 20 mg/kg | 25 mg/kg | – | – | – | – | – | –
5 | O=C(O)C(Oc1ccc(F)c(C(F)(F)F)c1)c1ccc(Cl)cc1 (centres unmarked) [SL C 151, 2-(4-Chloro-phenyl)-2-(4-fluoro-3-trifluoromethyl-phenoxy)-acetic acid] | 2000 mg/kg | 50 mg/kg | 12 mg/kg | – | – | – | – | – | –
6 | NC(=O)C(Oc1ccc(F)c(C(F)(F)F)c1)c1ccc(Cl)cc1 (centres unmarked) [SL D 063] | > 2000 mg/kg | > 100 mg/kg | 20 mg/kg | – | – | – | – | – | –
7 | O=C(NCCO)C(Oc1ccc(F)c(C(F)(F)F)c1)c1ccc(Cl)cc1 (centres unmarked) [SL D 064, 2-(4-Fluoro-3-trifluoromethyl-phenoxy)-2-(4-chloro-phenyl)-N-(2-hydroxy-ethyl)-acetamide] | > 2000 mg/kg | > 100 mg/kg | 20 mg/kg | – | – | – | – | – | –
8 | O=C(OCc1cccnc1)C(Oc1ccc(F)c(C(F)(F)F)c1)c1ccc(Cl)cc1 (centres unmarked) [SL D 065] | > 2000 mg/kg | 55 mg/kg | 35 mg/kg | – | – | – | – | – | –
9 | CC(=O)NCCOC(=O)C(Oc1ccc(F)c(C(F)(F)F)c1)c1ccc(F)cc1 (centres unmarked) [SL D 097, 2-acetylamino-ethyl 2-(4-fluoro-3-trifluoromethyl-phenoxy)-2-(4-fluoro-phenyl)acetate] | > 2000 mg/kg | > 100 mg/kg | 25 mg/kg | – | – | – | – | – | –
10 | CN1CCC(OC(=O)C(Oc2ccc(F)c(C(F)(F)F)c2)c2ccc(Cl)cc2)CC1 (centres unmarked) [SL-D.123, 1-Methyl-piperidinyl-4 2-(4-fluoro-3-trifluoromethyl-phenoxy)-2-(4-chloro-phenyl)-acetate] | – | – | – | – | 50 mg/kg | 20 mg/kg | – | – | > 2000 mg/kg
11 | CN(C)C(=O)CCCOC(=O)C(Oc1ccc(F)c(C(F)(F)F)c1)c1ccc(Cl)cc1 (centres unmarked) [SL-D.126, N,N-Dimethyl-3-aminocarbonyl-propyl 2-(4-fluoro-3-trifluoromethyl-phenoxy)-2-(4-chloro-phenyl)-acetate] | – | – | – | – | 70 mg/kg | 20 mg/kg | – | – | > 2000 mg/kg
12 | CC1CC(OC(=O)C(Oc2ccc(F)c(C(F)(F)F)c2)c2ccc(Cl)cc2)CC(C)(C)C1 (centres unmarked) [SL-D.128, 3,3,5-Trimethyl-cyclohexyl-1 2-(4-fluoro-3-trifluoromethyl-phenoxy)-2-(4-chloro-phenyl)-acetate] | – | – | – | – | 80 mg/kg | 10 mg/kg | – | – | > 2000 mg/kg
